14 molecules from patent US9173882B2, “Polycyclic heteroaryl substituted triazoles useful as Axl inhibitors” (Rigel Pharmaceuticals, Inc., priority 2008, dated 2015) can be followed below.

The target of the assay is T1, Axl (Homo sapiens, UniProt P30530).
T1 construct: endogenous in cells; host or cells: HeLa cells
T1 sequence (P30530 26-894): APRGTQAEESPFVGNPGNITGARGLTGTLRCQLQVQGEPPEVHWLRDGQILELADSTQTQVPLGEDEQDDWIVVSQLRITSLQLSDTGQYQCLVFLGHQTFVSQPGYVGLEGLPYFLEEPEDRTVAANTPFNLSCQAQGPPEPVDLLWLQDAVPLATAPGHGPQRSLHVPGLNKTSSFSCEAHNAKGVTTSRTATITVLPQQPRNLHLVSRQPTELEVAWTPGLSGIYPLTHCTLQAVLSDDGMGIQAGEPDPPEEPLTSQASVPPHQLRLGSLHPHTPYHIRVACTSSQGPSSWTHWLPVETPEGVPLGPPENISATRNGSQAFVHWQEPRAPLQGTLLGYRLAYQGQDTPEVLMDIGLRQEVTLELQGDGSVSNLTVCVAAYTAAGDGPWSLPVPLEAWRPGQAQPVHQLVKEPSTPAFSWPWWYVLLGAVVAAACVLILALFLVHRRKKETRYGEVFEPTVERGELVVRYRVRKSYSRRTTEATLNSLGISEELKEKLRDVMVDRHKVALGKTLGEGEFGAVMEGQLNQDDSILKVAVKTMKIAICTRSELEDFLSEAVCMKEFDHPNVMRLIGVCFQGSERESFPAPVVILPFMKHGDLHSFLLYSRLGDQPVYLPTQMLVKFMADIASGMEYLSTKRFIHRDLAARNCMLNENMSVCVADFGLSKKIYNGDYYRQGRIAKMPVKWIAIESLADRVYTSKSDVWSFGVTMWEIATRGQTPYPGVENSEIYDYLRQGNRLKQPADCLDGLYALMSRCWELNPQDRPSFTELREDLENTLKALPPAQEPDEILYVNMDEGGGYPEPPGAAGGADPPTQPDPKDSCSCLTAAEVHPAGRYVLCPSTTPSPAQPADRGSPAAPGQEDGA
As to the kind of experiment: Phospho-Akt in-cell Western assay. It counts as cell-based. The following applies: Hela cells, stimulated by Axl-antibody cross-linking, phospho-Akt chemiluminescence; Table 1, formula (Ia). The protocol:
Phospho-Akt in-Cell Western Assay
The compounds of the invention were tested in the following assay for their ability to inhibit Axl activity.
• Cell culture plate: 96 well assay plate (Corning 3610), white, clear bottom, tissue-culture treated. • Cells: Hela cells. • Starvation medium: For Axl stimulation: 0.5% FCS (fetal calf serum) in DMEM, plus Axl/Fc (extracellular domain of AXL fused to imunoglobulin Fc region) (R&D, 154-AL) 500 ng/mL. • For EGF (epidermal growth factor) stimulation: 0.5% FCS in DMEM (Dulbecco's modified Eagles medium). • Poly-L-Lysine 0.01% solution (the working solution): 10 μg/ml, dilute In PBS (phosphate buffered saline). • Axl antibody cross-linking: • 1st: Mouse anti-Axl (R&D, MAB154). • 2nd: Biotin-SP-conjugated AffiniPure goat anti-mouse IgG (H+L) (Jackson ImmunoResearch #115-065-003). • Fixing buffer: 4% formaldehyde in PBS. • Wash buffer: 0.1% TritonX-100 in PBS. • Quenching buffer: 3% H2O2, 0.1% Azide in wash buffer, Azide and hydrogen peroxide (H2O2) are added fresh. • Blocking buffer: 5% BSA in TBST (tris buffered saline plus 0.1% Tween 20). • Primary antibody: Rabbit anti-human Phospho-Akt antibody (Cell Signaling 9271): 1×250 diluted in blocking buffer. • Secondary antibody: HRP (horse radish peroxidase)-conjugated Goat anti-Rabbit secondary, stock solution: Jackson ImmunoResearch (Goat anti-Rabbit HRP, #111-035-144) 1:1 diluted in glycerol, store at −20° C. The working solution: 1×2000 dilution of stock in blocking buffer. • Chemiluminescent working solution (Pierce, 37030): SuperSignal ELISA (enzyme linked immunosorbant assay) Pico Chemiluminescent substrate. • Crystal Violet solution: Stock: 2.5% Crystal violet in methanol, filtered and kept at ambient temperature. The working solution: dilute the stock 1:20 with PBS immediately before use. • 10% SDS: working solution: 5% SDS (sodium dodecylsulfate), diluted in PBS Methods: Day 1:
A 96 well TC (tissue culture treated) plate was coated with 10 μg/mL poly-L-Lysine at 37° C. for 30 min, washed twice with PBS, and air-dried for 5 minutes before cells were added. Hela cells were seeded at 10,000 cells/well and the cells were starved in 100 μL starvation medium containing Axl/Fc for 24 hrs.
The cells were pre-treated with test compounds by adding 100 μL of 2× test compound to the starvation medium on the cells. The cells were incubated at 37° C. for 1 hr before stimulation.
The cells were stimulated by Axl-antibody cross-linking as follows: A 5× 1st/2nd Axl antibody mixture was made (37.5 μg/mL 1st/100 μg/mL 2nd) in starvation medium and nutated at 4° C. with thorough mixing for 1-2 hours for clustering. The resulting mix was warmed to 37° C. 50 μL of 5× Axl 1st/2nd of antibody cluster was added to the cells and the cells were incubated at 37° C. for 5 min.
After 5 minutes stimulation, the plate was flicked to remove medium and the plate was tapped onto paper towels. Formaldehyde (4.0% in PBS, 100 μL) was added to fix the cells and the cells were incubated at ambient temperature for 20 min without shaking.
The cells were washed with a plate washer buffer to remove the formaldehyde solution. The plate was flicked to removed excess wash buffer and tapped onto paper towels. Quenching buffer (100 μL) was added to each well and the cells were incubated at ambient temperature for 20 minutes without shaking.
The cells were washed with a plate washer buffer to remove the quenching buffer. Blocking buffer (100 μL) was added and the cells were incubated at ambient temperature for at least an hour with gentle shaking.
The cells were washed with a plate washer buffer and diluted primary antibody (50 μL) was added to each well (blocking buffer was added to the negative control wells instead). The plates were incubated overnight at 4° C. with gentle shaking.
The wash buffer was removed, diluted secondary antibody (100 μL) was added, and the cells were incubated at ambient temperature for 1 hour with gentle shaking. […]
Broadly, the IC50 is the concentration needed to halve the response being measured. A high value points to weaker potency in that assay. Molecule `Nc1nc(Nc2ccc3c(c2)CC[C@@H](N)CC3)nn1-c1cc2c(nn1)-c1ccccc1CCC2` [Compound 15, 1-(6,7-dihydro-5H-benzo[6,7]cyclohepta[1,2-c]pyridazin-3-yl)-N^3-((7S)-7-amino-6,7,8,9-tetrahydro-5H-benzo[7]annulene-2-yl)-1H-1,2,4-triazole-3,5-diamine] showed an IC50 of 1000 to 10000 nM.

`Nc1nc(Nc2ccc3c(c2)CC[C@@H](N(CC2CC2)CC2CC2)CC3)nn1-c1cc2c(nn1)-c1ccccc1CCC2` [Compound 16, 1-(6,7-dihydro-5H-benzo[6,7]cyclohepta[1,2-c]pyridazin-3-yl)-N^3-((7s)-7-(di(cyclopropylmethyl)amino)-6,7,8,9-tetrahydro-5H-benzo[7]annulene-2-yl)-1H-1,2,4-triazole-3,5-diamine]: the 50% inhibitory concentration (IC50) was under 1000 nM.

Turning to `CC(C)CN[C@H]1CCc2ccc(Nc3nc(N)n(-c4cc5c(nn4)-c4ccccc4CCC5)n3)cc2CC1` [Compound 17, 1-(6,7-dihydro-5H-benzo[6,7]cyclohepta[1,2-c]pyridazin-3-yl)-N^3-((7S)-7-((2-methylpropyl)amino)-6,7,8,9-tetrahydro-5H-benzo[7]annulene-2-yl)-1H-1,2,4-triazole-3,5-diamine], the IC50 was under 1000 nM.

`CCCN[C@H]1CCc2ccc(Nc3nc(N)n(-c4cc5c(nn4)-c4ccccc4CCC5)n3)cc2CC1` [Compound 18, 1-(6,7-dihydro-5H-benzo[6,7]cyclohepta[1,2-c]pyridazin-3-yl)-N^3-((7S)-7-((propyl)amino)-6,7,8,9-tetrahydro-5H-benzo[7]annulene-2-yl)-1H-1,2,4-triazole-3,5-diamine] displayed an IC50 of under 1000 nM.

For the molecule `CCCN(CCC)[C@H]1CCc2ccc(Nc3nc(N)n(-c4cc5c(nn4)-c4ccccc4CCC5)n3)cc2CC1` [Compound 19, 1-(6,7-dihydro-5H-benzo[6,7]cyclohepta[1,2-c]pyridazin-3-yl)-N^3-((7S)-7-(dipropylamino)-6,7,8,9-tetrahydro-5H-benzo[7]annulene-2-yl)-1H-1,2,4-triazole-3,5-diamine], the IC50 was under 1000 nM.

In the case of `CCN(CC)[C@H]1CCc2ccc(Nc3nc(N)n(-c4cc5c(nn4)-c4ccccc4CCC5)n3)cc2CC1` [Compound 20, 1-(6,7-dihydro-5H-benzo[6,7]cyclohepta[1,2-c]pyridazin-3-yl)-N^3-((7S)-7-(diethylamino)-6,7,8,9-tetrahydro-5H-benzo[7]annulene-2-yl)-1H-1,2,4-triazole-3,5-diamine], the IC50 is under 1000 nM.

As for `Nc1nc(Nc2ccc3c(c2)CC[C@@H](NC2CCCCC2)CC3)nn1-c1cc2c(nn1)-c1ccccc1CCC2` [Compound 21, 1-(6,7-dihydro-5H-benzo[6,7]cyclohepta[1,2-c]pyridazin-3-yl)-N^3-((7S)-7-(cyclohexylamino)-6,7,8,9-tetrahydro-5H-benzo[7]annulene-2-yl)-1H-1,2,4-triazole-3,5-diamine], the IC50 is under 1000 nM.

The molecule `Nc1nc(Nc2ccc3c(c2)CC[C@@H](NC2CCCC2)CC3)nn1-c1cc2c(nn1)-c1ccccc1CCC2` [Compound 22, 1-(6,7-dihydro-5H-benzo[6,7]cyclohepta[1,2-c]pyridazin-3-yl)-N^3-((7S)-7-(cyclopentylamino)-6,7,8,9-tetrahydro-5H-benzo[7]annulene-2-yl)-1H-1,2,4-triazole-3,5-diamine] displayed a concentration for half-maximal inhibition (IC50) of under 1000 nM.

`CC(C)N[C@H]1CCc2ccc(Nc3nc(N)n(-c4cc5c(nn4)-c4ccccc4CCC5)n3)cc2CC1` [Compound 24, 1-(6,7-dihydro-5H-benzo[6,7]cyclohepta[1,2-c]pyridazin-3-yl)-N^3-((7S)-7-(2-propylamino)-6,7,8,9-tetrahydro-5H-benzo[7]annulene-2-yl)-1H-1,2,4-triazole-3,5-diamine]: the IC50 is under 1000 nM.

`CC(N[C@H]1CCc2ccc(Nc3nc(N)n(-c4cc5c(nn4)-c4ccccc4CCC5)n3)cc2CC1)C(C)(C)C` (stereo partly drawn) [Compound 25, 1-(6,7-dihydro-5H-benzo[6,7]cyclohepta[1,2-c]pyridazin-3-yl)-N^3-((7S)-7-((3,3-dimethylbut-2-yl)amino)-6,7,8,9-tetrahydro-5H-benzo[7]annulene-2-yl)-1H-1,2,4-triazole-3,5-diamine]: the IC50 lay in the range of 1000 to 10000 nM.

In the case of `Nc1nc(Nc2ccc3c(c2)CC[C@@H](NCC2CCCCC2)CC3)nn1-c1cc2c(nn1)-c1ccccc1CCC2` [Compound 26, 1-(6,7-dihydro-5H-benzo[6,7]cyclohepta[1,2-c]pyridazin-3-yl)-N^3-((7S)-7-((cyclohexylmethyl)amino)-6,7,8,9-tetrahydro-5H-benzo[7]annulene-2-yl)-1H-1,2,4-triazole-3,5-diamine], the IC50 was under 1000 nM.

In turn, `Nc1nc(Nc2ccc3c(c2)CC[C@@H](N(CC2CCCCC2)CC2CCCCC2)CC3)nn1-c1cc2c(nn1)-c1ccccc1CCC2` [Compound 27, 1-(6,7-dihydro-5H-benzo[6,7]cyclohepta[1,2-c]pyridazin-3-yl)-N^3-((7S)-7-(di(cyclohexylmethyl)amino)-6,7,8,9-tetrahydro-5H-benzo[7]annulene-2-yl)-1H-1,2,4-triazole-3,5-diamine] came in with an IC50 of 10000 to 20000 nM.

In turn, `Nc1nc(Nc2ccc3c(c2)CC[C@@H](NCc2ccccc2C(=O)O)CC3)nn1-c1cc2c(nn1)-c1ccccc1CCC2` [Compound 29, 1-(6,7-dihydro-5H-benzo[6,7]cyclohepta[1,2-c]pyridazin-3-yl)-N^3-((7S)-7-((2-carboxyphenyl)methyl)amino-6,7,8,9-tetrahydro-5H-benzo[7]annulene-2-yl)-1H-1,2,4-triazole-3,5-diamine] returned an IC50 of 1000 to 10000 nM.

Turning to `Nc1nc(Nc2ccc3c(c2)CC[C@@H](NCc2cccc(Br)c2)CC3)nn1-c1cc2c(nn1)-c1ccccc1CCC2` [Compound 30, 1-(6,7-dihydro-5H-benzo[6,7]cyclohepta[1,2-c]pyridazin-3-yl)-N^3-((7S)-7-((3-bromophenyl)methyl)amino-6,7,8,9-tetrahydro-5H-benzo[7]annulene-2-yl)-1H-1,2,4-triazole-3,5-diamine], the IC50 lay within 1000 to 10000 nM.
